{"source": "patent US20040009185A1", "about": "“Enhancing the immune response to an antigen by presensitzing with an inducing agent prior to immunizing with the agent and the antigen” (priority 2003, published 2004)", "key": {"[1]": {"test_system": "gp100 (native or modified)", "type": "in vivo, A2Kb transgenic mice", "conditions": "priming with 20.0 μg toxoid i.m., then ALVAC gp100 recombinant given as a mixture with the toxoid; FIGS. 7 and 8"}, "CEA": {"test_system": "CEA", "type": "in vivo, A2Kb transgenic mice", "conditions": "priming with 20.0 μg toxoid i.m., then ALVAC CEA recombinant given as a mixture with the toxoid; FIG. 6"}, "modified gp100": {"test_system": "modified gp100", "set-up": "species or system A2Kb transgenic mice", "conditions": "mouse, in vivo"}}, "data": [{"substance": "diphtheria toxoid", "values": [{"measurement": "immune response to the modified gp100 and gp100 antigens (reactive T cells, IFN gamma ELISPOT)", "setting": "[1]", "result": "clearly enhanced"}, {"measurement": "immune response to the CEA antigen (reactive T cells, IFN gamma ELISPOT)", "setting": "CEA", "result": "clearly enhanced"}]}, {"substance": "tetanus toxoid", "values": [{"measurement": "immune response to the modified gp100 and gp100 antigens (reactive T cells, IFN gamma ELISPOT)", "setting": "[1]", "result": "clearly enhanced"}, {"measurement": "immune response to the CEA antigen (reactive T cells, IFN gamma ELISPOT)", "setting": "CEA", "result": "clearly enhanced"}, {"measurement": "immune response to the immunogen modified gp100 (gp100-specific CTL response)", "setting": "modified gp100", "result": "clearly enhanced"}]}]}
